{
  "source": "patent US9051345B2",
  "about": "“Metalloinsertor complexes targeted to DNA mismatches” (CALIFORNIA INSTITUTE OF TECHNOLOGY, priority 2011, dated 2015)",
  "type_in_all_cases": "cell-based, human",
  "key": {"[1]": {"tested_on": "HCT116N cells", "assay": "MTT cytotoxicity assay", "details": "72 hours", "procedure": "(§1) Cytotoxicity assays were performed as described in Mosmann, 1983, J. Immunol. Methods, 65, 55-63, the entire contents of which is incorporated herein by reference. HCT116N and HCT116O cells were plated in 96-well plates at 50,000 cells/well and incubated with rhodium for the durations specified. After incubation with the indicated rhodium complexes, cells were labeled with MTT for 4 hours at 37° C. under 5% CO2 and humidified atmosphere. The resulting formazan crystals were dissolved with solubilizing reagent purchased from Roche according to the manufacturer's instructions. The dissolved formazan was quantified as the absorbance at 570 nm minus the background absorbance at 690 nm. Percent viability was determined as the ratio of the amount of formazan in the treated cells to that of the untreated cells.\n(§2) In order to elucidate the mechanism of action for the cytotoxicity caused by a metalloinsertor complex of Formula I, the MTT cytotoxicity assay was repeated in the absence and presence of the pan-caspase inhibitor Z-VAD-FMK. This inhibitor works by irreversibly binding to the active site of caspases which participate in the apoptotic pathway. Z-VAD-FMK was added to a final concentration of 20 μM. The HCT116N and HCT116O cell lines were treated with 0-30 μM of the [Rh(HDPA)2chrysi]^3+ complex for 24-72 hours. In addition, each treatment was also combined with the inhibitor at a final concentration of 20 μM.\nIn order to determine the mechanism of action for cytotoxicity caused by a metalloinsertor complex of Formula I, the MTT cytotoxicity assay was repeated in conjunction with a panel of poly-ADP ribose polymerase (PARP) inhibitors: DPQ, 3-AB, 4-AN, and ABT-888, as described in Costantino et al., 2001, J. Med. Chem., 44, 3786-3794; Purnell et al., 1980, Biochem. J. 185, 775-777; Banasik et al., 1992, J. Biol. Chem. 267, 1569-1575; and Donawho et al., 2007, Clin. Cancer Res., 13, 2728-2737, the entire contents of all of which are incorporated herein by reference. […]"}, "[2]": {"tested_on": "HCT116O cells", "assay": "MTT cytotoxicity assay", "procedure": "as §1\nas §2, with “Z-VAD-FMK was added to a final concentration of 20 μM.” left out, “In addition, each treatment was also combined with the inhibitor at a final concentration of 20 μM.” left out\nIn order to determine the mechanism of action for cytotoxicity caused by a metalloinsertor complex of Formula I, the MTT cytotoxicity assay was repeated in conjunction with a panel of poly-ADP ribose polymerase (PARP) inhibitors: DPQ, 3-AB, 4-AN, and ABT-888, as described in Costantino et al., 2001, J. Med. Chem., 44, 3786-3794; Purnell et al., 1980, Biochem. J. 185, 775-777; Banasik et al., 1992, J. Biol. Chem. 267, 1569-1575; and Donawho et al., 2007, Clin. Cancer Res., 13, 2728-2737, the entire contents of all of which are incorporated herein by reference. The HCT116N and HCT116O cell lines were treated with 0 or 20 μM of the [Rh(HDPA)2chrysi]^3+ complex for 72 hours, with or without one of the four inhibitors. The inhibitor 3,4-Dihydro-5[4-(1-piperindinyl)butoxy]-1(2H)-isoquinoline (DPQ) was added to a final concentration of 0, 25, or 50 μM; the inhibitor 3-aminobenzamide (3-AB) was added to a final concentration of 0, 2, or 3 mM; the inhibitor 4-amino-1,8-napthalimide (4-AN) was added to a final concentration of 0, 10, or 20 μM; and the inhibitor 2-((R)-2-Methylpyrrolidin-2-yl)-1H-benzimidazole-4-carboxamide (ABT-888) was added to a final concentration of 0, 5, or 10 μM. […] For example, in the case of the compound DPQ, this difference was 43±2.7% without inhibitor and 0.6±3.0% with inhibitor."}, "[3]": {"tested_on": "HCT116N and HCT116O cells", "assay": "ICP-MS assay for cellular rhodium levels, whole cell lysates", "details": "10 μM; 48 hours; compared to [Rh(bpy)2chrysi]^3+ or [Rh(NH3)4chrysi]^3+", "procedure": "To assay the subcellular localization of the rhodium complexes, an inductively coupled plasma mass spectrometry (ICP-MS) assay was used to quantify the uptake of the complexes in both whole cell extracts and nuclear and mitochondrial fractions.\nEach cell line was treated with 10 μM of each rhodium complex as indicated in FIG. 33A (except [Rh(DIP)2(chrysi]^3+ which was administered at 2 μM) for 1, 3, 6, 12, 24, or 48 hours. After rhodium incubation, the cells were harvested from adherent culture by trypsinization, washed with cold PBS, and counted by hemacytometer. The samples were pelleted and resuspended in 1% HNO3 (v/v), homogenized by three freeze/thaw cycles in liquid nitrogen, and analyzed for rhodium content on an HP-4500 ICP-MS unit. Rhodium counts were normalized to the number of cells counted in each sample before lysate preparation. Standard errors for three independent experiments are shown."}},
  "data": [
    {"substance": "[Rh(HDPA)2chrysi]^3+", "values": [
      {"measurement": "number of viable HCT116N cells, % of untreated controls", "setting": "[1]; 20 μM", "result": "80±5.2", "unit": "%"},
      {"measurement": "cell viability HCT116N with caspase inhibitor", "setting": "[1]; 30 μM metal complex, with Z-VAD-FMK at 20 M (so in the source)", "result": "52±9.8", "unit": "%"},
      {"measurement": "cell viability HCT116N", "setting": "[1]; 30 μM metal complex, without inhibitor", "result": "63±5.7", "unit": "%"},
      {"measurement": "caspase dependence of the selective cell death", "setting": "[2]; MTT with or without Z-VAD-FMK", "result": "caspase-independent"},
      {"measurement": "number of viable HCT116O cells, % of untreated controls", "setting": "[2]; MTT, 20 μM, 72 hours", "result": "37±4.4", "unit": "%"},
      {"measurement": "difference between percentage of viable HCT116N cells and percentage of viable HCT116O cells, with DPQ", "setting": "[2]; MTT, 20 μM, 72 hours, with PARP inhibitor DPQ", "result": "0.6±3.0", "unit": "%"},
      {"measurement": "difference between percentage of viable HCT116N cells and percentage of viable HCT116O cells", "setting": "[2]; MTT, 20 μM, 72 hours, without inhibitor", "result": "43±2.7", "unit": "%"},
      {"measurement": "cell viability HCT116O with caspase inhibitor", "setting": "[2]; MTT, 30 μM metal complex, 72 hours, with Z-VAD-FMK at 20 M (so in the source)", "result": "9.8±7.8", "unit": "%"},
      {"measurement": "cell viability HCT116O", "setting": "[2]; MTT, 30 μM metal complex, 72 hours, without inhibitor", "result": "9.7±4.4", "unit": "%"},
      {"measurement": "toxicity in MMR-deficient HCT116O versus HCT116N cells at 48 hours", "setting": "[2]; MTT, 48 hours", "result": "enhance toxicity in the MMR-deficient HCT116O cells"},
      {"measurement": "cell viability HCT116O without inhibitor (40 μM caspase inhibitor experiment)", "setting": "[2]; MTT, rhodium alone, control arm of the 40 μM Z-VAD-FMK experiment", "result": "16±10", "unit": "%"},
      {"measurement": "cell viability HCT116O with caspase inhibitor 40 μM", "setting": "[2]; MTT, rhodium plus Z-VAD-FMK 40 μM", "result": "28±3.7", "unit": "%"},
      {"measurement": "cellular uptake (rhodium accumulation in whole cell lysates)", "setting": "[3]", "result": "increase in cellular uptake"}
    ]}
  ]
}
